This is an account of results in PMC12028472, “Marine-Derived Yaequinolone Derivative CHNQD-02792 Suppresses Colorectal Cancer Cell Proliferation and Induces Apoptosis via MAPK Pathway Modulation” (Marine Drugs, 2025).

Usually IC50 stands for the concentration at which inhibition is half-maximal. Higher therefore signals weaker potency in that assay.

A value given as a limit tells only on which side of the number the result lay.

Assay [1] concerns HT-29. Description: MTT assay, HT-29 cells. In kind it is cell-based. The following applies: Homo sapiens, 72 h. The protocol:
(§1) Human colorectal adenocarcinoma cells HT-29, HCT-116, DLD-1, LS-174T, RKO, and LoVo, as well as mouse colorectal carcinoma cell CT-26, were purchased from the Chinese Academy of Sciences Shanghai Cell Bank.
(§2) Cells stored at −80 °C were rapidly thawed in a 37 °C water bath, centrifuged to collect, and resuspended in a complete medium for culturing in a 37 °C, 5% CO2 incubator. Then, they were rinsed twice with PBS, digested with trypsin, and resuspended in a complete medium after detachment. HT-29, HCT-116, DLD-1, and CT-26 cells were cultured in RPMI-1640 medium supplemented with 10% FBS and 1% penicillin-streptomycin. LS-174T cells were cultured in DMEM-H medium, LoVo in Ham’s F-12K medium, and RKO in MEM.
(§3) Cells in the logarithmic growth phase were seeded in 96-well plates at 4000 cells per well, adjusted based on growth rates, and incubated overnight at 37 °C with 5% CO2. Experimental wells were treated with yaequinolone derivatives at concentrations of 0.4, 2, 10, 20, and 50 μM, while control wells received equivalent dilutions of DMSO to minimize effects. Each group was prepared in five replicates and incubated for 72 h. After removing the drug-containing medium, 100 μL of MTT solution (5 mg/mL) was added to each well and incubated at 37 °C for 4 h. The solution was then aspirated, replaced with 200 μL of DMSO, incubated for 10 min at 37 °C, and shaken before measuring absorbance (OD) at 570 nm using a microplate reader. The tumor cell survival rate was calculated as follows: survival rate (%) = [(OD experimental group − OD blank group)/(OD control group − OD blank group)] × 100%. All experiments were conducted in triplicate.
Background: Formazan colour is commonly taken as a measure of viable cells.

Assay [2] relates to CT-26. Description: MTT assay, CT-26 cells. Format: cell-based. The following applies: Mus musculus, CT26, 72 h. The protocol: as §1, §2, §3
In assay [3] the test system is RKO. Description: MTT assay, RKO cells. In kind it is cell-based. The note with it: Homo sapiens, 72 h. Here is the method:
as §1, §2, §3

Assay [4] relates to LoVo. As to the kind of experiment: MTT assay, LoVo cells. The note with it: Homo sapiens, 72 h. Format: cell-based. The protocol: as §1, §2, §3
Assay [5] relates to HCT-116. Description: MTT assay, HCT-116 cells. Format: cell-based. The following applies: Homo sapiens, 72 h. Here is the method: as §1, §2, §3
Assay [6] relates to DLD-1. As to the kind of experiment: MTT assay, DLD-1 cells. In kind it is cell-based. The following applies: Homo sapiens, 72 h. Here is the method: as §1, §2, §3
The test system of assay [7] is LS-174T. Description: MTT assay, LS-174T cells. Format: cell-based. The note with it: Homo sapiens, LS174T, 72 h. Here is the method: as §1, §2, §3
The test system of assay [8] is RAW264.7 cells. As to the kind of experiment: Inhibition of RAW264.7 cells (normal cells vs cancer cells). In kind it is cell-based. The following applies: Mus musculus. The source says:
Therefore, to verify the difference between CHNQD-02792 on normal cells and cancer cells, we examined the inhibition of CHNQD-02792 on RAW264.7 cells. […] The inhibition of HT-29 cell colony formation increased with higher concentrations of CHNQD-02792.

The test system of assay [9] is HT-29 cells. As to the kind of experiment: Plate colony formation assay. Format: cell-based, human. The note with it: 9 μM, 14 days. Here is the method: Cells in the logarithmic growth phase were seeded at 1000 per well in 6-well plates and incubated overnight at 37 °C with 5% CO2. CHNQD-02792 (2.3, 4.5, and 9 μM) was added to the experimental group, while the control group received an equal dilution of DMSO. The medium color was monitored regularly, and the medium was replaced simultaneously in both groups. After 14 days, clonal clusters (approximately 50 cells) were formed. The cells were washed with PBS, fixed with 4% paraformaldehyde for 1 h, stained with crystal violet for 30 min, washed again with PBS, dried, photographed, and analyzed using Image J software (v 1.8.0.) to count colonies. The cell proliferation rate was calculated by comparing the experimental group with the control group treated with DMSO.

Assay [10] relates to HT-29 cells. As to the kind of experiment: Cell cycle assay (PI, flow cytometry). Format: cell-based, human. The following applies: highest concentration, 48 h, control 16.42%. Here is the method:
Cells in the logarithmic growth phase were seeded at 350,000 cells per well in 6-well plates and incubated overnight at 37 °C with 5% CO2. CHNQD-02792 (2.3, 4.5, 9 μM) was added to the experimental group, while an equal dilution of DMSO was added to the control group. After 48 h, cells were collected, centrifuged at 300× g for 5 min at 4 °C, and resuspended in 1 mL of ice-cold PBS. This step was repeated, and the supernatant was discarded. The cells were then resuspended in 300 μL of PBS, and 700 μL of pre-cooled anhydrous ethanol was added dropwise for fixation at 4 °C overnight. Within 12–24 h, cells were centrifuged at 1000× g for 5 min, and the supernatant was discarded. The cells were washed with 1 mL of pre-cooled PBS, centrifuged again, and resuspended in 500 μL of PBS. RNase A and PI were then added to each tube, […]. The cells were incubated at 4 °C with RNase A and PI in the dark for 30 min. Data were collected using a flow cytometer (488 nm laser excitation, 620/29 nm filter), and results were analyzed using FlowJo software (v.10.8.1).

In assay [11] the test system is HT-29 cells. As to the kind of experiment: Apoptosis assay (Annexin V-FITC/PI flow cytometry). In kind it is cell-based, human. Here is the method:
Cells in the logarithmic growth phase were seeded at 600,000 cells per well in 6-well plates and incubated overnight at 37 °C in a 5% CO2 incubator. CHNQD-02792 (2.3, 4.5, 9 μM) was added to the experimental group, while the control group received an equal dilution of DMSO. After 48 h, cells were collected, centrifuged at 300× g for 5 min, and washed once with PBS. The cells were gently resuspended and counted. Take 1–5 × 10^5 resuspended cells, centrifuge at 300× g for 5 min, and discard the supernatant. The cells were washed once with PBS, centrifuged again, and the supernatant was discarded. Then, 500 μL of 1× diluted Annexin V Binding Buffer was added to resuspend the cells. Add 5 μL of Annexin V-FITC and 5 μL of PI (50 μg/mL) to the cell suspension. After gently vortexing, incubate the samples at room temperature in the dark for 15–20 min. Immediately analyze the samples using a flow cytometer. The results were analyzed using Novoexpress software (v.1.6.2).

Assay [12] concerns Cyclin B1. Description: Western blot, Cyclin B1 expression in HT-29 cells. Format: cell-based, human. The note with it: HT-29, increasing concentrations (2.3, 4.5, 9 μM). Here is the method:
(§4) Cells in the logarithmic growth phase were seeded at 600,000 cells per well in 6-well plates and incubated overnight at 37 °C with 5% CO2. CHNQD-02792 (2.3, 4.5, and 9 μM) was added to the experimental group, while an equivalent dilution of DMSO was added to the control group. After 24 h of treatment, the cells were collected from the incubator. The cells were washed twice with pre-cooled PBS, and the proteins were extracted using ice-cold RIPA lysis buffer (RIPA-PMSF, 99:1, v/v). Adherent cells were scraped off the Petri dish with a pre-cooled plastic scraper. Protein concentrations were measured using a BCA kit. Protein samples were mixed with 5× loading buffer, boiled in a metal bath for 6 min, and stored at −20 °C. Proteins of different molecular weights were separated by gel electrophoresis and transferred onto PVDF membranes using wet transfer. The membrane was blocked with 5% skimmed milk powder for 2 h, followed by incubation with the primary antibody overnight at 4 °C. After three washes with TBST (10 min each), the membrane was incubated with the secondary antibody at room temperature for 1 h. It was then washed three times with TBST (10 min each) and analyzed using a gel imaging system with a high-sensitivity ECL luminescent solution.

The subject of assay [13] is CDK1. Description: Western blot, CDK1 expression in HT-29 cells. Format: cell-based, human. The note with it: HT-29, increasing concentrations (2.3, 4.5, 9 μM). Here is the method: as §4
(A western blot detects proteins with antibodies after separation by electrophoresis.)

The test system of assay [14] is Caspase-3. Description: Western blot, Caspase-3 expression in HT-29 cells. In kind it is cell-based, human. The note with it: HT-29, increasing concentrations (2.3, 4.5, 9 μM). The protocol:
as §4

Assay [15] has as its system Bcl-2. As to the kind of experiment: Western blot, Bcl-2 expression in HT-29 cells. In kind it is cell-based, human. The following applies: HT-29, increasing concentrations (2.3, 4.5, 9 μM). The protocol: as §4
The subject of assay [16] is Bax. As to the kind of experiment: Western blot, Bax expression in HT-29 cells. In kind it is cell-based, human. The note with it: HT-29, increasing concentrations (2.3, 4.5, 9 μM). Here is the method: as §4
Assay [17] has as its system ERK. Description: Western blot, ERK phosphorylation in HT-29 cells. In kind it is cell-based, human. The following applies: HT-29, Western blot. The protocol: as §4
In assay [18] the test system is JNK. As to the kind of experiment: Western blot, JNK phosphorylation in HT-29 cells. Format: cell-based, human. The following applies: HT-29, Western blot. Here is the method:
as §4

Assay [19] relates to LPS-induced RAW264.7 cells. More on the design: method as in PMID 36758306. The note with it: 10 nM; cited from earlier work.
The test system of assay [20] is LPS-induced RAW264.7 cells. The arrangement: method as in PMID 36758306. The note with it: 50 nM; cited from earlier work.

For `O=c1[nH]cc(F)c(=O)[nH]1` [5-fluorouracil, reference compound], in assay [1], the IC50 was determined as 15.6 µM.

In the case of `COc1ccc([C@]2(O)c3c(ccc4c3O[C@](C)(CCC=C(C)C)C=C4)N(Cc3cccc(Br)c3)C(=O)[C@H]2OC)cc1` [Compound 4], the IC50 in assay [2] was > 50 µM; in assay [3], 48.3 µM; in assay [4], > 50 µM; in assay [1], > 50 µM; in assay [5], > 50 µM; in assay [6] it was > 50 µM. For the same molecule, the concentration for half-maximal inhibition (IC50) in [7] was > 50 µM.

For the molecule `COc1ccc([C@]2(O)c3c(ccc4c3O[C@@](C)(CCC=C(C)C)C=C4)N(Cc3cccc(Br)c3)C(=O)[C@H]2OC)cc1` [Compound 7], the IC50 in [2] is > 50 µM; in assay [3] it was 22 µM; in [4] it was 25 µM; in [1], > 50 µM; in assay [5], > 50 µM; in [6], > 50 µM. Further, in assay [7], the IC50 is > 50 µM.

As to `CO[C@@H]1C(=O)Nc2ccc3c(c2[C@@]1(O)c1cccc(Br)c1)O[C@@](C)(CCC=C(C)C)C=C3` [Compound 12], the IC50 in [2] was 26.3 µM; in assay [3], 37.3 µM; in assay [4] it was > 50 µM; in assay [1], 42.8 µM; in assay [5], 25.8 µM; in assay [6], 11.6 µM. In [7], this molecule displayed an IC50 of 7.7 µM.

`CO[C@@H]1C(=O)Nc2ccc3c(c2[C@@]1(O)c1cccc(Br)c1)O[C@](C)(CCC=C(C)C)C=C3` [Compound 13]: the IC50 in assay [2] is > 50 µM; in assay [3] it was 28 µM; in assay [4], 28.3 µM; in assay [1], 4.5 µM; in assay [5], 50 µM; in assay [6] it was > 50 µM. In addition, the IC50 in [7] amounted to 24.3 µM; in assay [8], 27.2 µM. Further, in [9], the “growth of HT-29 cells, plate cloning assay” value is “completely inhibited”. The “proportion of cells in the G2/M phase” value in assay [10] is 31.78%. Moreover, the “Q4 (early apoptotic cells)” value in assay [11] (9.0 μM, 48 h, HT-29, Annexin V-FITC/PI, control 5.31%) came out at 20.23%. Also, in assay [11] (48 h of treatment, HT-29, control 6.81%), the “proportion of apoptotic cells” value is listed as 26.10%. For the same molecule, in assay [12], the “Cyclin B1 protein expression level” value is given as “decreased”. Moreover, in assay [13], the “CDK1 protein expression level” value is recorded as “decreased”. The Caspase-3 protein expression entry in assay [14] is given as “significantly increased”. Also, the Bcl-2 protein expression result in assay [15] is “markedly decreased”. In addition, in assay [16], the Bax protein expression entry was “increased”. Besides, the “phosphorylation of ERK” value in assay [17] is “inhibited”. Further, the “phosphorylation of JNK” value in assay [18] is “increased”. Moreover, the NO release result in assay [19] is “significantly inhibiting”. Moreover, the IL-6 level entry in [20] is “significantly inhibiting”.
